Source: patent US12146004B2, “Polymyxin compounds and uses thereof” (priority 2014, dated 2024)
Values after ≈ are worked out from the molar mass of the structure shown.

Assays:
Assay type in all cases: cell-based
[1] = test system: Acinetobacter baumannii
How it was run: (§1)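 Values are minimum inhibitory concentrations, reported in μg/mL. Compounds were tested for susceptibility against up to nine strains per organism, including resistant isolates.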

[2] = test system: Escherichia coli
How it was run: as §1

[3] = test system: Klebsiella pneumoniae
How it was run: as §1

[4] = test system: Pseudomonas aeruginosa
How it was run: as §1

SMILES | MIC A. baumanii ATCC BAA-747 [1] | MIC A. baumanii NCTC 13424 [1] | MIC E. coli 058 [2] | MIC E. coli ATCC 25922 [2] | MIC E. coli NCTC 9001 [2] | MIC K. pneumoniae 065 [3] | MIC K. pneumoniae ATCC 13882 [3] | MIC P. aeruginosa ATCC 27853 [4] | MIC P. aeruginosa CCUG 59347 [4] | MIC A. baumanii 053 [1] | MIC A. baumanii 056 [1] | MIC E. coli 061 [2] | MIC K. pneumoniae 063 [3] | MIC P. aeruginosa 068 [4] | MIC P. aeruginosa 070 [4]
CCC(C)CC(CCN)C(=O)N[C@H](C(=O)N[C@@H](CN)C(=O)N[C@H]1CCNC(=O)[C@H]([C@@H](C)O)NC(=O)[C@H](CCN)NC(=O)[C@H](CCN)NC(=O)[C@H](CC(C)C)NC(=O)[C@@H](CC2CCCCC2)NC(=O)[C@H](CCN)NC1=O)C(C)O (single isomer, unassigned; isomer 2) [Example 47, 2-(2-aminoethyl)-4-methylhexanoyl L-Thr-L-Dap-polymyxin [D-cyclohexylalanine]-6 heptapeptide. Isomer 2] | 0.125 µg/mL (≈ 0.113 µM) | 0.25 µg/mL (≈ 0.225 µM) | 4 µg/mL (≈ 3.6 µM) | 0.25 µg/mL (≈ 0.225 µM) | 0.125 µg/mL (≈ 0.113 µM) | 0.5 µg/mL (≈ 0.45 µM) | 0.5 µg/mL (≈ 0.45 µM) | 0.5 µg/mL (≈ 0.45 µM) | 0.5 µg/mL (≈ 0.45 µM) | – | – | – | – | – | –
CC(C)C[C@@H]1NC(=O)[C@@H](CC2CCCCC2)NC(=O)[C@H](CCN)NC(=O)[C@@H](NC(=O)[C@H](CN)NC(=O)[C@@H](NC(=O)CC(CN)c2ccc(Cl)cc2)C(C)O)CCNC(=O)[C@H]([C@@H](C)O)NC(=O)[C@H](CCN)NC(=O)[C@H](CCN)NC1=O (single isomer, unassigned; isomer 2) [Example 51, 4-amino-3-(4-chlorophenyl) butanoyl L-Thr-L-Dap-polymyxin [D-cyclohexylalanine]-6 heptapeptide. Isomer 2] | 0.5 µg/mL (≈ 0.434 µM) | 0.25 µg/mL (≈ 0.217 µM) | 2 µg/mL (≈ 1.74 µM) | 0.5 µg/mL (≈ 0.434 µM) | – | 0.25 µg/mL (≈ 0.217 µM) | 0.5 µg/mL (≈ 0.434 µM) | 0.5 µg/mL (≈ 0.434 µM) | 0.5 µg/mL (≈ 0.434 µM) | – | – | – | – | – | –
CC(C)C[C@@H]1NC(=O)[C@@H](CC2CCCCC2)NC(=O)[C@H](CCN)NC(=O)[C@@H](NC(=O)[C@H](CCN)NC(=O)[C@@H](NC(=O)C(CN)Cc2ccccc2)C(C)O)CCNC(=O)[C@H]([C@@H](C)O)NC(=O)[C@H](CCN)NC(=O)[C@H](CCN)NC1=O (single isomer, unassigned; isomer 2) [Example 53, 3-amino-2-benzylpropanoyl polymyxin [D-cyclohexylalanine]-6 nonapeptide. Isomer 2] | 0.5 µg/mL (≈ 0.442 µM) | 0.5 µg/mL (≈ 0.442 µM) | 4 µg/mL (≈ 3.54 µM) | 0.25 µg/mL (≈ 0.221 µM) | 0.125 µg/mL (≈ 0.111 µM) | 4 µg/mL (≈ 3.54 µM) | 0.25 µg/mL (≈ 0.221 µM) | 0.25 µg/mL (≈ 0.221 µM) | 0.5 µg/mL (≈ 0.442 µM) | 64 µg/mL (≈ 56.6 µM) | 64 µg/mL (≈ 56.6 µM) | 32 µg/mL (≈ 28.3 µM) | 64 µg/mL (≈ 56.6 µM) | 8 µg/mL (≈ 7.08 µM) | 8 µg/mL (≈ 7.08 µM)
CC(C)C[C@@H]1NC(=O)[C@@H](CC2CCCCC2)NC(=O)[C@H](CCN)NC(=O)[C@@H](NC(=O)[C@H](CCN)NC(=O)[C@@H](NC(=O)C(CCN)c2ccc(F)cc2)C(C)O)CCNC(=O)[C@H]([C@@H](C)O)NC(=O)[C@H](CCN)NC(=O)[C@H](CCN)NC1=O (single isomer, unassigned; isomer 2) [Example 54, 4-amino-2-(4-fluorophenyl) butanoyl polymyxin [D-cyclohexylalanine]-6 nonapeptide isomer 2] | 0.125 µg/mL (≈ 0.109 µM) | 0.25 µg/mL (≈ 0.218 µM) | 4 µg/mL (≈ 3.48 µM) | 0.125 µg/mL (≈ 0.109 µM) | 0.06 µg/mL (≈ 0.0522 µM) | 1 µg/mL (≈ 0.871 µM) | 0.25 µg/mL (≈ 0.218 µM) | 0.25 µg/mL (≈ 0.218 µM) | 0.5 µg/mL (≈ 0.435 µM) | 32 µg/mL (≈ 27.9 µM) | 8 µg/mL (≈ 6.97 µM) | 16 µg/mL (≈ 13.9 µM) | 32 µg/mL (≈ 27.9 µM) | 4 µg/mL (≈ 3.48 µM) | 4 µg/mL (≈ 3.48 µM)
